In US20110197293A1, “SENSE AND ANTISENSE TRANSCRIPTS OF TRPM2 AND USES THEREOF” (GIOVANNI LAVORGNA, priority 2008, published 2011):

What was measured:
Type in all cases: cell-based, human
TRPM2-AS transcript = assay: qPCR of TRPM2-AS transcript after siRNA transfection in Mel Im cells; conditions: siRNA 10 nM, harvested at 24 hours, respect to mock-transfected cells
Source text: (§1) Beta-actin (Exons 5-6) was amplified from cDNAs using the specific primers: LC+hBactin-U 5′-TCCTCCTGGAGAAGAGCTA-3′ (SEQ ID No. 6) and LC+hBactin-L 5′-GGATGCCACAGGACTCCAT-3′ (SEQ ID No. 7) coupled to human Universal Probe Library (UPL) probe number 11 (Roche) resulting in a 124 bp fragment. TRPM2-FL (Exons 20-21) was amplified by RT-PCR from cDNAs using the specific primers: RCH_LONG_TRPM2_U 5′-ACCTCCTCATCGCCATGTT-3′ (SEQ ID No. 8) and RCH_LONG_TRPM2_L 5′-[…]-3′ (SEQ ID No. 9) coupled to human UPL probe number 11, resulting in a 68 bp fragment. TRPM2-AS (Exons 1-2) was amplified by RT-PCR from cDNAs using the specific primers: RCH-asmel-1F 5′-[…]-3′ (SEQ ID No. 10) and RCH-asmel-1R 5′-[…]-3′ (SEQ ID No. 11) coupled to human UPL probe number 57, resulting in a 61 bp fragment. TRPM2-TE was amplified from cDNAs using the primers: UPL-TSS-U 5′-GATGTTTTGGCGGAAGGAC-3′ (SEQ ID No. 12) and UPL-TSS-Rev 5′-CAGGAAGACGTGACGCAAG-3′ (SEQ ID No. 13) coupled to human UPL probe number 6, resulting in a 88 bp intronless fragment. The contribution of genomic DNA contamination to the detected signal was subtracted by running a parallel real-time quantification from a RT-minus reaction, where the RT-enzyme was substituted with water. When RNA was not available to perform the RT-minus control, the contribution of DNA contamination to the detected signal was subtracted by performing a real-time quantification on the same samples, using a couple of primers specific for the Beta-actin promoter: LC-ProBACT-U1 5′-[…]-3′ (SEQ ID No. 14) and LC-ProBACT-L1 5′-[…]-3′ (SEQ ID No. 15) coupled to human UPL probe number 81 (Roche) resulting in a 85 bp fragment. Real time PCR reactions were performed on a LightCycler 480 instrument (Roche), on 96 multiwell plates (Roche) using LightCycler 480 ProbeMaster Mix (Roche) following the manufacturer instructions. Briefly, all reactions were performed in a final 30 μl volume containing 15 μl of 2× MasterMix, 0.6 μl of each primer (20 μmol/L), 0.3 μl of the corresponding UPL probe (10 μmol/L), and 10 μl of template cDNA. Only for TRPM2-AS the reaction was supplemented with 6 μl of 5× Solution-Q (Qiagen) and the cDNA template lowered to 7 μl. The resulting mix was pre-incubated for 10 minutes at 95° C., then amplification reactions were performed by 45 repetitive cycles of denaturing for 10 seconds at 95° C., annealing for 15 seconds at 58° C. and a final extension plus single acquisition step at 72° C. for 1 second. Levels of target gene transcripts were normalized to transcript levels of a reference gene (Beta-actin) and calculated using a relative quantification model with efficiency correction. Amplification efficiency of primer pairs was calculated from serial dilutions of a representative cDNA template over a concentration range of 3 log orders. […]

TRPM2-TE transcript = assay: qPCR of TRPM2-TE transcript after siRNA transfection in Mel Im cells; conditions: siRNA 10 nM, harvested at 24 hours, respect to mock-transfected cells
Source text: as §1

Melanoma cells = assay: Apoptosis detection by flow cytometry (Annexin V) after siRNA transfection; conditions: 72 h after transfection
Description: Apoptosis was measured after a 72 h transfection with any of the following siRNA: TRPM2-AS—657, TRPM2-AS—734, TRPM2-TE—55 or the non-specific siRNA. Early and late apoptotic cells were assessed by flow cytometry using the Annexin V-Fitc Apoptosis Detection kit (Immunostep, Salamanca, Spain), following manufacturer's instructions. Data acquisition and analysis were done in a FACSort Cytometer (Becton Dickinson, Franklin Lakes, N.J.) using CellQuest and FCS Express software.

[1] = test system: CpG island located between TRPM2-AS and TRPM2-TE transcripts; assay: De-novo DNA methylation of the CpG island, bisulphite sequencing of clones; conditions: Mel Im cells, liposome-encapsulated oligonucleotides 3 μM final, 24 hours
Description: Genomic DNA was isolated and purified with TRIzol reagent (Invitrogen) and quantified with a Nanodrop. Average 100 ng of each DNA sample were subjected to bisulphite modification with the MethylEasy Kit (Human Genetic Signatures) allowing the sulphonation reaction to proceed for no less than 8 hours at 55° C. Following conversion, 3 μl of the modified DNAs were PCR amplified with the primers CpG-8U 5′-[…]-3′ (SEQ ID No. 3) and CpG-8L 5′-[…]-3′ (SEQ ID No. 4) (1 ng/μl each) in the presence of buffer 10× (Qiagen), dNTPs (2 mmol/L), 5× Solution Q (Qiagen), Taq DNA Polymerase (3U), with the reaction conditions being: 1 minute of pre-incubation at 95° C., then amplification reactions were performed by 35 repetitive cycles of denaturing for 1 minute at 95° C., annealing for 2 minutes at 55° C. and extension for 2 minutes at 72° C. A semi-nested PCR reaction was performed in same conditions except for the forward primer changed to CpG-1U 5′-[…]-3′ (SEQ ID No. 5), using 4 μl of the previous 472 bp per product as template. The resulting 370 bp product was then gel-purified, cloned and sequenced using standard procedures.
Three phosphorothioate oligonucleotides were designed in which the cytosines in CpG dinucleotides were replaced by m^5 CpG. […]

Row | Substance | knock-down of TRPM2-AS transcript expression (TRPM2-AS transcript) | knock-out of TRPM2-TE transcripts/molecules (TRPM2-TE transcript) | level of apoptosis vs. the control siRNA or the mock transfected cells (Melanoma cells) | methylation of CpG island clones (5 clones sequenced) [1]
1 | 5′-GAAGGACCACAGAGGAAGU(dTdT)-3′ [TRPM2-TE—55] | 30% | 56% | significant increase | 
2 | 5′-CCACUUACUCAUCCAAGAA(dTdT)-3′ [TRPM2-AS—734] | 75% | 70% | significant increase | 
3 | 5′-CCAGUAACUCCGCCCAAAU(dTdT)-3′ [TRPM2-AS—657] | 69% | 84% | significant increase | 
4 | TCCT^mCGGGCTGCTGAGTTT^mCGC^mCGGCCC (DNA TCCTCGGGCTGCTGAGTTTCGCCGGCCC; 5-methylcytosine modifications, chemistry not fully specified) [MOS] |  |  |  | non-methylation
5 | 5′-AGGUAGUGUAAUCGCCUUG(dTdT)-3′ [non-specific siRNA, reference compound] | No significant down-regulation | No significant down-regulation |  | 
